Measurements reported in ChEMBL document CHEMBL1201862, “PubChem BioAssay data set” (2004).
Active and inactive are the calls of the source.

Tests used:
Type in all cases: functional
[1] = molecular target: T1, Carboxy-terminal domain RNA polymerase II polypeptide A small phosphatase 1 (Homo sapiens, UniProt Q9GZU7); assay: CTDSP1 inhibitors, concentration-response, biochemical, absorbance readout, ultra-high-throughput screen actives (AID 540297)
T1 sequence (Q9GZU7 whole entry): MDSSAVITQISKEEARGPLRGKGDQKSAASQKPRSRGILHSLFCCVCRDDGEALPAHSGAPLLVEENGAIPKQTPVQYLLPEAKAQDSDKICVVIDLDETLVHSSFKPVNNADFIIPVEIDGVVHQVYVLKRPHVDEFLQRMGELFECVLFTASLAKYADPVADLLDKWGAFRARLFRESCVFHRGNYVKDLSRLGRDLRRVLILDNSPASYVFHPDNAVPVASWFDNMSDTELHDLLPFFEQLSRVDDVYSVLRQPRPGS

[2] = molecular target: T2, Low molecular weight phosphotyrosine protein phosphatase (Homo sapiens, UniProt P24666); conditions: read-out: IC50_Mean
T2 sequence (P24666 whole entry): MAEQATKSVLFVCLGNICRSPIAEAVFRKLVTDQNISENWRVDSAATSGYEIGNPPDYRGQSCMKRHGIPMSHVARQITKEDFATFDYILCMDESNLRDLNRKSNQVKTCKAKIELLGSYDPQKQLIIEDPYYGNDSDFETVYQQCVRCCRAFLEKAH

[3] = molecular target: T2, Low molecular weight phosphotyrosine protein phosphatase; conditions: read-out: IC50_Mean; remark: listed apart in the source
[4] = Luminescence Cell-Based Dose Retest to Confirm Inhibitors of Cancer Stem Cells. [Related pubchem assays (depositor defined):AID2717, AID2721]; conditions: Homo sapiens
[5] = molecular target: T3, Microphthalmia-associated transcription factor (Homo sapiens, UniProt O75030); assay: reducers of TRPM1 reporter luminescence, concentration series – cell-based, SK-MEL-5, cherry-picked, set 3, MITF inhibitor project, dose response (AID 493073);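 also: SK-MEL-5 melanoma cells with luciferase driven by the MITF target TRPM1 promoter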
T3 sequence (O75030 whole entry): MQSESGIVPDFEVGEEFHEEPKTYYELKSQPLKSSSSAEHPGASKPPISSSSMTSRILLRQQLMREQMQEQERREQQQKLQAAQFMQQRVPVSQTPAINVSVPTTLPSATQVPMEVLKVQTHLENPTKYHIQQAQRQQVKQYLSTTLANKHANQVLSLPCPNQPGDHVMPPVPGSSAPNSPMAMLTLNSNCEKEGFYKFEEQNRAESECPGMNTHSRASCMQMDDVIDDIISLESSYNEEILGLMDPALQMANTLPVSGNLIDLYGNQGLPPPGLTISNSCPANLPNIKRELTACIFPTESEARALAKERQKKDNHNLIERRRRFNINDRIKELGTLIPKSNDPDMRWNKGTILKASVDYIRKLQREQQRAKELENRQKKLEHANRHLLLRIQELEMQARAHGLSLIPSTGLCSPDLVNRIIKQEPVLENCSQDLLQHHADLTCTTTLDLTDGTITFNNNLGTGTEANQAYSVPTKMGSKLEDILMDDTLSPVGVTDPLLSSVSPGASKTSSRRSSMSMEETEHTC

[6] = Fluorescence-based cell-based high throughput dose response assay for inhibitors of the interaction of nucleotide-binding oligomerization domain containing 2 (NOD2) and the receptor-interacting serine-threonine kinase 2 (RIPK2).; conditions: Homo sapiens
[7] = molecular target: T4, Tyrosine-protein phosphatase non-receptor type 11 (Homo sapiens, UniProt Q06124); assay: PTPN11 enzyme inhibitors – biochemical, selectivity assay for STEP inhibitor project, dose response (AID 602367); conditions: read-out: IC50_Mean
T4 sequence (Q06124 whole entry): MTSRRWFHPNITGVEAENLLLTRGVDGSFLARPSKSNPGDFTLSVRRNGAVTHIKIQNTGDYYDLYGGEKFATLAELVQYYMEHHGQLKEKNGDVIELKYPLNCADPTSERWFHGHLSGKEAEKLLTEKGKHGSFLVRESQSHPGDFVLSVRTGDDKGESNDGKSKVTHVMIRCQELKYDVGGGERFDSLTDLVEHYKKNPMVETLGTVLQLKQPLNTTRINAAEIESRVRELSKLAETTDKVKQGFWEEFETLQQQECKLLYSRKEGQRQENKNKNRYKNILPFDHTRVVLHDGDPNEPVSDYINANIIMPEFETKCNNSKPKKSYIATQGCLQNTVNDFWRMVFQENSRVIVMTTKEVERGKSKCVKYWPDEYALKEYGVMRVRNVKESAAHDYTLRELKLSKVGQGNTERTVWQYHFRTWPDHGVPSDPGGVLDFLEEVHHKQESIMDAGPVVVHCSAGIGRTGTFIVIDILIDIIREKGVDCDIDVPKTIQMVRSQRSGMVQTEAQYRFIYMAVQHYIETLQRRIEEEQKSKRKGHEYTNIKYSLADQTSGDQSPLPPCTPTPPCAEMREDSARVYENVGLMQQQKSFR

[8] = molecular target: T5, Tyrosine-protein phosphatase non-receptor type 5 (Homo sapiens, UniProt P54829); assay: PTPN5 enzyme inhibition – biochemical, fluorescence intensity, uHTS hits, confirmation (AID 602372); conditions: read-out: IC50_Mean
T5 sequence (P54829 whole entry): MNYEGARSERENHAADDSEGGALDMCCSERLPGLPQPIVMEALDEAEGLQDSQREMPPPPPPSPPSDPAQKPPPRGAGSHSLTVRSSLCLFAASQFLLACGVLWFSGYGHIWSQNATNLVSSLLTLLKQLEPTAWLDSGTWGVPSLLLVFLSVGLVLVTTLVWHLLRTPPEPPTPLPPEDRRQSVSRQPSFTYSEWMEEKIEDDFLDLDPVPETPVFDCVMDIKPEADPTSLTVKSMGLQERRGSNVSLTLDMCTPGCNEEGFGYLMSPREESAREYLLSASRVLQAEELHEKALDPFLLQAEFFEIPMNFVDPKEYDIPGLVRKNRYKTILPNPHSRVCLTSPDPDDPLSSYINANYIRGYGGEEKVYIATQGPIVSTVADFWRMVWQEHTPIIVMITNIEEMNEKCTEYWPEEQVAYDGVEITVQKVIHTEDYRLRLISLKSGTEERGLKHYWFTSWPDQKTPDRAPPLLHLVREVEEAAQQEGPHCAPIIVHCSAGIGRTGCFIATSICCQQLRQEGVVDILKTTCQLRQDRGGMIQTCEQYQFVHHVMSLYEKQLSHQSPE

[9] = molecular target: Dual specificity protein phosphatase 3 (Homo sapiens, UniProt P51452); assay: VHR phosphatase inhibition, dose response, selectivity assay for STEP inhibitor project, biochemical (AID 602374); conditions: read-out: IC50_Mean
[10] = viability loss in THP-1 monocytes – THP-1 cells, cytotoxicity control for Vif-APOBEC3G degradation inhibitor project, dose response (AID 1117359); conditions: THP-1
[11] = activation of miR-122 Renilla sensor silencing – cell-based, Huh7 psiCHECK-miR122, Renilla luciferase, cherry-picked, dose response (AID 651956);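 also: huh7 hepatoma cells stably carrying a psiCHECK-2 miR-122 sensor plasmid; renilla luciferase signal reporting endogenous miR-122 activity after 48 h compound exposure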

Sequence of Dual specificity protein phosphatase 3 (P51452 whole entry): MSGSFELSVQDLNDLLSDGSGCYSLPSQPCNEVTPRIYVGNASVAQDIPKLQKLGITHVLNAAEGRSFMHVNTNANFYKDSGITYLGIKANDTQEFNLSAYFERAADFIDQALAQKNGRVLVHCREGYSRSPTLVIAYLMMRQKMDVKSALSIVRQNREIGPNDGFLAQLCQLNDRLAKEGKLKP

With O=C(N/N=C/c1ccc(OC(=O)c2ccc3c(c2)OCO3)cc1)c1cncc(Br)c1 the IC50 [1] was 1.8 µM (active), the IC50 [2] was 6.29 µM (active) and the IC50 [3] was 1.82 µM (active).

For O=C(/C=C/c1ccc(Cl)c([N+](=O)[O-])c1)c1ccc(O)cc1, the AC50 [4] was 4.36 µM (active), the AC50 [5] was 17.4 µM (active) and the IC50 [6] was 7.04 µM (active).

For NN=C1C(Cl)=C(Cl)C(Cl)=C1Cl, the IC50 [7] was 1.45 µM (active), the IC50 [8] was > 80 µM (inactive) and the IC50 [9] was 1.99 µM (active). For the same molecule, the IC50 [2] was 7.19 µM (active), the IC50 [3] was 38.7 µM (inactive) and the CC50 [10] was > 40 µM (active).

With C[C@@H]1CN([C@H](C)CO)S(=O)(=O)c2ccc(C#CC3(O)CCCC3)cc2O[C@@H]1CN(C)C(=O)c1cccnc1 the AC50 [11] was 9.98 µM (active).
